A short description of data set [1]: in vivo. The note with it: mouse, read-out: Acute toxicity LD50.
Data set [2] has as its target T1, cardiac beta-1-receptors (Felis catus, UniProt Q9TST6).
T1 construct: increases the pulse rate of narcotized cats (weighing 2-4 kg) by an average of 40%; from tissue; host or cells: heart of living narcotized cats (in vivo, endogenous receptor)
The data set is described as follows: Beta-sympatholytic action: inhibition of isoproterenol-induced tachycardia in narcotized cats. Format: in vivo. The note with it: for ED50: cat, iv, read-out: Beta-sympatholytic action ED50%: dose which inhibits the isoproterenol-induced tachycardia by 50%; for R.A. (relative activity) / factor by which doses blocking the cardiac beta-1-receptors are smaller than those of propranolol: cats; for R.A. (relative activity): Propranolol = 1.00; for factor by which doses blocking the cardiac beta-1-receptors are smaller than those of propranolol: versus propranolol. On the procedure:
The beta-sympatholytic action of the compounds was tested on cats. […] The following test methods were used:
Beta-sympatholytic agents inhibit the tachycardia.
^1 Inhibition of isoproterenolinduced tachycardia in cats under
hexobarbital narcosis. Compound administered intravenously.

Data set [3] concerns cardiac beta-1-receptors. The note with it: mouse, in vivo.

T1 sequence (Q9TST6 whole entry): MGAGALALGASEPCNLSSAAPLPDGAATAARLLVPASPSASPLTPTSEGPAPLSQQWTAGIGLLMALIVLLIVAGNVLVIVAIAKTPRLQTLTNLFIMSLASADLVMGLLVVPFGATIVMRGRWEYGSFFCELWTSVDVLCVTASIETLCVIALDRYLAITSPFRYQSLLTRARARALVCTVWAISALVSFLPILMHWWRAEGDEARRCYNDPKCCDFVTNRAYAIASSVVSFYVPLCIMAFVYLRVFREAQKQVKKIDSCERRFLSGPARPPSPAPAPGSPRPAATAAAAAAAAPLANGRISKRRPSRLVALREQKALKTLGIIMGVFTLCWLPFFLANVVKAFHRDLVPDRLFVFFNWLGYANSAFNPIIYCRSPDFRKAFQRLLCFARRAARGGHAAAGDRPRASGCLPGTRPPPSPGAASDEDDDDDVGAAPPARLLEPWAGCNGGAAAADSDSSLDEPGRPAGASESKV

For `Cc1nnc(/C=C/c2ccccc2OCC(O)CNC(C)C)s1` (stereo not shown) [Compound 3, 2-Methyl-5-[2-(2-hydroxy-3-isopropylamino-propoxy)-styryl]-1,3,4-thiadiazol], the LD50 in data set [1] is 83 mg/kg. Besides, in data set [2], the ED50 turned out to be 0.01 mg/kg and the “R.A. (relative activity)” value came out at 14.10. This compound also showed a Therapeutic range relative in data set [3] of 10.84.
With `Cc1nnc(/C=C/c2ccccc2OCC(O)CNC2CC2)s1` (stereo not shown) [Compound 4, 2-Methyl-5-[2-(2-hydroxy-3-cyclopropylamino-propoxy)-styryl]-1,3,4-thiadiazole], the LD50 in data set [1] came out at 69.4 mg/kg. Also, in data set [2], the ED50 was 0.012 mg/kg, the “R.A. (relative activity)” value worked out at 11.75 and the “factor by which doses blocking the cardiac beta-1-receptors are smaller than those of propranolol” value turned out to be 12. The compound further came in with a Therapeutic range relative in data set [3] of 7.55.
Consider `Cc1nnc(/C=C/c2ccccc2OCC(O)CNC(C)(C)C)s1` (stereo not shown) [Compound 5, 2-Methyl-5-[2-(2-hydroxy-3-tert.-butylamino-propoxy)-styryl]-1,3,4-thiadiazole], for which, in data set [2], the “R.A. (relative activity)” value stood at 25.22 and the “factor by which doses blocking the cardiac beta-1-receptors are smaller than those of propranolol” value is 25. In data set [3], the Therapeutic range relative is listed as 13.73.
For `C#CC(C)NCC(O)COc1ccccc1/C=C/c1nnc(C)s1` (stereo not shown) [Compound 6, 2-Methyl-5-[2-(2-hydroxy-3-(1-butyn-3-ylamino)-propoxy)styryl]-1,3,4-thiadiazole], the LD50 in data set [1] stood at 261 mg/kg. Further, in data set [2], the ED50 amounted to 0.0111 mg/kg and the “R.A. (relative activity)” value is recorded as 12.70. The compound also returned a Therapeutic range relative in data set [3] of 30.68.

The values are drawn from patent publication US4263430A, “2-Methyl-5-(2-hydroxystyryl)-1,3,4-thiadiazole” (BASF Aktiengesellschaft, priority 1978, dated 1981).
